Measurements reported in US20110009374A1, “METHOD OF WOUND HEALING AND SCAR MODULATION” (priority 2009, published 2011).
“And” between values parts separate entries of the source, which are not always exact repeats. Equal values may be shown once.

Columns and labels:
Type in all cases: in vivo
[1] = test system: linear subcutaneous-deep incision wounds in hairless mice (Skh:HR-1); experiment: Example 2 wound healing in hairless mice: healing evaluation by wound width
Procedure: (§1) Twelve hairless mice (Skh:HR-1) with an average weight of […] were treated topically with a local anesthetic (LMX-4, Ferndale Laboratories, Inc.) for 30 minutes prior to wounding for dermal anesthesia. Antiseptics were not used because of the possibility of their local effect on the wound healing process.
(§2) The mice were subdivided into two groups, A and B. Each mouse received three linear, 10 mm long, subcutaneous-deep incision wounds parallel to the spinal column. The first incision was near the spinal column on the left side (C), one at a position 10 mm away from the first on the same side (L), and one on the right side about 10 mm from the center line or spinal column (R). All incision wounds were made with a 0.3 mm blade surgical blade. Because of the loose nature of the hairless mouse epidermis the wounds spread to as wide as 3 mm. Each mouse was housed separately.
(§3) 1) 0.25% Formulations: water (79.75%), ethanol (18%), methylprednisolone acetate or prednisolone acetate (0.25%), and ammonium acryloyldimethyltaurate/VP copolymer (2%).
(§4) 2) 1% Formulations: water (79%), ethanol (18%), methylpredinisolone acetate or prednisolone acetate (1%), and ammonium acryloyldimethyltaurate/VP copolymer (2%).
(§5) In Group A, wounds C and L were treated with the 0.25% and 1% methylprednisolone acetate formulations, respectively, and wound R was the control or untreated wound. In Group B, wounds C and L were treated with the 0.25% and 1% prednisolone acetate formulations, respectively and wound R was the control. The study drug (methylprednisolone or prednisolone) was applied to the treatment wounds twice daily (8 hours apart) beginning 1 h after the incision on day 1 and continuing through day 21. The wounds were far enough apart to avoid the spread of the treatment gel from the treated wound to the control wound. No additional physical barrier, such as a gauze bandage, was used.
Healing evaluation was made by measuring wound closure, which was assessed by the width of the wound. The width of each scar was measured with digital calipers at the widest point while subject was lying motionless, on its ventral side. Digital photographs were taken to record the healing process. The mean width of wound was recorded on days 1, 3, 5, 7, 9, 11, 13, 15, 17, 19 and 21.

[2] = test system: linear subcutaneous-deep incision wounds in hairless mice (Skh:HR-1); experiment: Example 2 scar evaluation by Vancouver Scale at day 21 and gross evaluation; set-up: key: Vancouver Scale subscores (18-point total), mean of two observers
Procedure: as §1, §2, §3, §4, §5
(§6) Each mouse was kept in its cage during days 14-21. On day 21, each scar was assessed according to the Vancouver Scale (18 points) under magnification by two observers independently and the scores were averaged and recorded. Progressive re-epithelializaton of the wound surface from the wound edges continued until the wound surface was completely closed at a time between days 14 and 21.

[3] = test system: linear subcutaneous-deep wounds in hairless mice (Skh:HR-1); experiment: Example 1 wound healing in hairless mice: healing evaluation by wound width; conditions: for Scar Width at widest margin: individual subject, 1% formulation topically twice daily; for Scar Width at widest margin / Scar Width at widest margin, Mean: L wound; for Scar Width at widest margin, Mean: mean of 12 subjects, 1% formulation twice daily
Procedure: as §1, with “for dermal anesthesia for” for “for”, “wounding.” for “wounding for dermal anesthesia.”
(§7) Two linear subcutaneous-deep wounds were made bilaterally with a 0.3 mm blade surgical knife on the dorsal side of each subject approximately 10 mm on each side of the spinal column. Because of the loose nature of the hairless mouse epidermis the wounds spread to as wide as 3 mm. Each mouse was housed separately.
(§8) The test formulation comprised the following ingredients (by weight percent): water (79%), ethanol (18%), prednisolone acetate (1%), and ammonium acryloyldimethyltaurate/VP copolymer (2%).
(§9) In each test subject, the right wound was assigned to a control (i.e., no treatment) and the left would was treated with a the 1% prednisolone acetate test formulation, applied twice daily (8 hours apart) beginning 1 h after the incision on day 1 and continuing through day 21. The wounds were about 20 mm apart to prevent the treatment gel from migrating from the treatment wound to the control wound.
Healing evaluation was made by measuring wound closure, which was assessed by the width of the wound. Evaluation was made on days 1, 3, 5, 10, and 14. The width of each scar was measured with digital calipers at the widest point while subject was lying motionless on its ventral side. Digital photographs were taken to record healing process.

[4] = test system: linear subcutaneous-deep wounds in hairless mice (Skh:HR-1); experiment: Example 1 scar evaluation by Vancouver Scale at day 21; conditions: 1% formulation
Procedure: as §1, with “for dermal anesthesia for” for “for”, “wounding.” for “wounding for dermal anesthesia.”
as §7, §8, §9
as §6, with “re-epithelialization” for “re-epithelializaton”

[5] = Day 1, wound C, 0.25% formulation twice daily
[6] = Day 1, wound L, 1% formulation twice daily
[7] = Day 3, wound C, 0.25% formulation twice daily
[8] = Day 3, wound L, 1% formulation twice daily
[9] = Day 5, wound C, 0.25% formulation twice daily
[10] = Day 5, wound L, 1% formulation twice daily
[11] = Day 7, wound C, 0.25% formulation twice daily
[12] = Day 7, wound L, 1% formulation twice daily
[13] = Day 9, wound C, 0.25% formulation twice daily
[14] = Day 9, wound L, 1% formulation twice daily
[15] = Day 11, wound C, 0.25% formulation twice daily
[16] = Day 11, wound L, 1% formulation twice daily
[17] = Day 13, wound C, 0.25% formulation twice daily
[18] = Day 13, wound L, 1% formulation twice daily
[19] = Day 15, wound C, 0.25% formulation twice daily
[20] = Day 15, wound L, 1% formulation twice daily
[21] = Day 17, wound C, 0.25% formulation twice daily
[22] = Day 17, wound L, 1% formulation twice daily
[23] = Day 19, wound C, 0.25% formulation twice daily
[24] = Day 19, wound L, 1% formulation twice daily
[25] = Day 21, wound C, 0.25% formulation twice daily
[26] = Day 21, wound L, 1% formulation twice daily
[27] = Day 21, individual subject, L wound
[28] = Day 21, mean of 12 subjects, L wound

## CC(=O)OCC(=O)[C@@]1(O)CC[C@H]2[C@@H]3C[C@H](C)C4=CC(=O)C=C[C@]4(C)[C@H]3[C@@H](O)C[C@@]21C [methylprednisolone acetate]
[1]; [5]
  Mean Wound Width at Widest Margin: 3.1 ± 0.3 mm
[1]; [6]
  Mean Wound Width at Widest Margin: 3.0 ± 0.2 mm
[1]; [7]
  Mean Wound Width at Widest Margin: 2.5 ± 0.2 mm
[1]; [8]
  Mean Wound Width at Widest Margin: 2.4 ± 0.3 mm
[1]; [9]
  Mean Wound Width at Widest Margin: 2.0 ± 0.3 mm
[1]; [10]
  Mean Wound Width at Widest Margin: 1.9 ± 0.4 mm
[1]; [11]
  Mean Wound Width at Widest Margin: 1.5 ± 0.2 mm
[1]; [12]
  Mean Wound Width at Widest Margin: 1.4 ± 0.2 mm
[1]; [13]
  Mean Wound Width at Widest Margin: 1.0 ± 0.3 mm
[1]; [14]
  Mean Wound Width at Widest Margin: 0.9 ± 0.3 mm
[1]; [15]
  Mean Wound Width at Widest Margin: 0.5 ± 0.2 mm
[1]; [16]
  Mean Wound Width at Widest Margin: 0.5 ± 0.1 mm
[1]; [17]
  Mean Wound Width at Widest Margin: 0.1 ± 0.3 mm
[1]; [18]
  Mean Wound Width at Widest Margin: 0.1 ± 0.2 mm
[1]; [19]
  Mean Wound Width at Widest Margin: 0 mm
[1]; [20]
  Mean Wound Width at Widest Margin: 0 mm
[1]; [21]
  Mean Wound Width at Widest Margin: 0 mm
[1]; [22]
  Mean Wound Width at Widest Margin: 0 mm
[1]; [23]
  Mean Wound Width at Widest Margin: 0 mm
[1]; [24]
  Mean Wound Width at Widest Margin: 0 mm
[1]; [25]
  Mean Wound Width at Widest Margin: 0 mm
[1]; [26]
  Mean Wound Width at Widest Margin: 0 mm
[2]; wound C, 0.25% formulation
  Mean Vancouver Scale Scar Scoring, Height: 0
  Mean Vancouver Scale Scar Scoring, Pigmentation: 1
  Mean Vancouver Scale Scar Scoring, Pliability: 2.0
  Mean Vancouver Scale Scar Scoring, Vascularity: 0
[2]; wound L, 1% formulation
  Mean Vancouver Scale Scar Scoring, Height: 0
  Mean Vancouver Scale Scar Scoring, Pigmentation: 1
  Mean Vancouver Scale Scar Scoring, Pliability: 1.5
  Mean Vancouver Scale Scar Scoring, Vascularity: 0

## CC(=O)OCC(=O)[C@@]1(O)CC[C@H]2[C@@H]3CCC4=CC(=O)C=C[C@]4(C)[C@H]3[C@@H](O)C[C@@]21C [prednisolone acetate]
[3]; 1% formulation
  redness and marginal line of treated wounds vs control: less redness and a finer marginal line
[3]; 1% formulation, number of scars out of 12
  scars healed with some degree of contracture: 8 out of the 12
[3]; 1% formulation, treated and control wounds
  signs of infection: Neither the control nor the treated wounds showed signs of infection
[3]; Day 1
  Scar Width at widest margin: 3.0 mm (2×) and 2.6 mm and 2.9 mm (4×) and 2.7 mm (3×) and 2.8 mm (2×)
  Scar Width at widest margin, Mean: 2.8 mm
[3]; Day 3
  Scar Width at widest margin: 1.9 mm (3×) and 1.8 mm (4×) and 1.4 mm and 1.5 mm and 1.7 mm (3×)
  Scar Width at widest margin, Mean: 1.8 mm
[3]; Day 5
  Scar Width at widest margin: 1.7 mm (3×) and 1.6 mm (3×) and 1.1 mm and 1.3 mm and 1.4 mm (3×) and 1.5 mm
  Scar Width at widest margin, Mean: 1.5 mm
[3]; Day 10
  Scar Width at widest margin: 0.6 mm (4×) and 0.2 mm and 0.4 mm (2×) and 0.5 mm (3×) and 0.3 mm and 0.7 mm
  Scar Width at widest margin, Mean: 0.5 mm
[3]; Day 14
  Scar Width at widest margin: 0.2 mm (2×) and 0.0 mm (10×)
  Scar Width at widest margin, Mean: 0 mm and 0.0 mm
[3]; day 3, 1% formulation
  mean difference in wound width, treated vs control: 0.4 mm
[3]; day 5, 1% formulation
  mean difference in wound width, treated vs control: 0.4 mm
[3]; day 7, 1% formulation
  mean difference in wound width, treated vs control: 0.5 mm
[3]; day 10, 1% formulation
  mean difference in wound width, treated vs control: 0.5 mm
[3]; day 14, 1% formulation
  mean difference in wound width, treated vs control: 0.7 mm
[3]; evaluation and healing period, 1% formulation
  retarding of healing phases: No apparent retarding of any phase of healing
[3]; evident by day 5, 1% formulation
  contracture of healed epidermal layer vs control: less contracture
[3]; first 14 days, 1% formulation
  gross appearance of treated wounds (crusting, infiltrates, exudates): clear of crusting, infiltrates, and exudates
[3]; over a 14-day period, 1% formulation
  healing vs control group by wound width: faster than the control group
[4]; [27]
  Averaged Vancouver Scale Scar Scoring, Height: 0
  Averaged Vancouver Scale Scar Scoring, Pigmentation: 1.5 and 1 (11×)
  Averaged Vancouver Scale Scar Scoring, Pliability: 1 (10×) and 1.5 (2×)
  Averaged Vancouver Scale Scar Scoring, Vascularity: 1 (2×) and 0 (10×)
[4]; [28]
  Averaged Vancouver Scale Scar Scoring, Height, Mean: 0
  Averaged Vancouver Scale Scar Scoring, Pigmentation, Mean: 1.1
  Averaged Vancouver Scale Scar Scoring, Pliability, Mean: 1.1
  Averaged Vancouver Scale Scar Scoring, Vascularity, Mean: 0.16
[4]; day 21
  global assessment of scars by Vancouver Scale, treated vs control: significant difference in pliability, pigmentation and vascularity
  pigmentation vs control: marginally better
  vascularity in treated areas: returned to virtually normal
[1]; [5]
  Mean Wound Width at Widest Margin: 3.1 ± 0.3 mm
[1]; [6]
  Mean Wound Width at Widest Margin: 3.0 ± 0.2 mm
[1]; [7]
  Mean Wound Width at Widest Margin: 2.5 ± 0.2 mm
[1]; [8]
  Mean Wound Width at Widest Margin: 2.4 ± 0.3 mm
[1]; [9]
  Mean Wound Width at Widest Margin: 1.7 ± 0.2 mm
[1]; [10]
  Mean Wound Width at Widest Margin: 1.8 ± 0.4 mm
[1]; [11]
  Mean Wound Width at Widest Margin: 1.4 ± 0.2 mm
[1]; [12]
  Mean Wound Width at Widest Margin: 1.5 ± 0.2 mm
[1]; [13]
  Mean Wound Width at Widest Margin: 1.1 ± 0.2 mm
[1]; [14]
  Mean Wound Width at Widest Margin: 1.0 ± 0.2 mm
[1]; [15]
  Mean Wound Width at Widest Margin: 0.6 ± 0.2 mm
[1]; [16]
  Mean Wound Width at Widest Margin: 0.6 ± 0.2 mm
[1]; [17]
  Mean Wound Width at Widest Margin: 0.1 ± 0.2 mm
[1]; [18]
  Mean Wound Width at Widest Margin: 0.2 ± 0.3 mm
[1]; [19]
  Mean Wound Width at Widest Margin: 0 mm
[1]; [20]
  Mean Wound Width at Widest Margin: 0 mm
[1]; [21]
  Mean Wound Width at Widest Margin: 0 mm
[1]; [22]
  Mean Wound Width at Widest Margin: 0 mm
[1]; [23]
  Mean Wound Width at Widest Margin: 0 mm
[1]; [24]
  Mean Wound Width at Widest Margin: 0 mm
[1]; [25]
  Mean Wound Width at Widest Margin: 0 mm
[1]; [26]
  Mean Wound Width at Widest Margin: 0 mm
[2]; wound C, 0.25% formulation
  Mean Vancouver Scale Scar Scoring, Height: 0
  Mean Vancouver Scale Scar Scoring, Pigmentation: 1
  Mean Vancouver Scale Scar Scoring, Pliability: 2.5
  Mean Vancouver Scale Scar Scoring, Vascularity: 0
[2]; wound L, 1% formulation
  Mean Vancouver Scale Scar Scoring, Height: 0
  Mean Vancouver Scale Scar Scoring, Pigmentation: 1
  Mean Vancouver Scale Scar Scoring, Pliability: 1.0
  Mean Vancouver Scale Scar Scoring, Vascularity: 0
